Here are results for ten compounds from patent US6972287B1, “Method of inhibiting amyloid protein aggregation and imaging amyloid deposits” (Pfizer Inc., priority 1999, dated 2005).

Several values for one entry are separate records, joined by “and”; a condition that tells them apart may be missing. Equal values may be shown once.

In one test the target is T1, Aβ (1-42) (Homo sapiens, UniProt P05067).
T1 construct: Required Aβ (1-42) (California Peptide) was dried from its hexafluoroisopropanol (HFIP) stock solution; purchased California Peptide
T1 sequence (P05067 672-713 limits assumed): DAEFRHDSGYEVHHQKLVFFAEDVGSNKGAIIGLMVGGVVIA
Description: BATYM assay (Aβ (1-42) aggregation, Thioflavin T fluorescence). The test is classed as biochemical. To be noted: Aβ 1-42 final concentration 100 μM, 37° C., 1 day, letter = synthetic lot. On the procedure:
Required Aβ (1-42) (California Peptide) was dried from its hexafluoroisopropanol (HFIP) stock solution. The Aβ (1-42) was dissolved in dimethylsulfoxide (DMSO) and then mixed with phosphate buffered saline (PBS) (pH 7.4). The mixed Aβ (1-42) solution was filtered with a 0.2 μm Omnipore membrane syringe filter Millipore, Bedford, Mass.). The compound to be tested in DMSO (50 times concentrate) was put into each well (0.5 μL/well) of a 96-well plate. The Aβ (1-42) solution was added into each well (24.5 μL/well). The plate was centrifuged at 1,000 g for 5 minutes and incubated at 37° C. for 1 day (Aβ 1-42; final concentration 100 μM).
After incubation Thioflavin T (ThT) (30 μM) solution in glycine-NaOH buffer (pH 8.5, 50 mM) was added into each well (250 μL/well), fluorescence was measured (ex=440/20 nm, em=485/20 nm) using a fluorescence plate reader. The inhibitory activity was calculated as the reduction of fluorescence with the following formula: Inhibition (%)={(F(Aβ)−F(Aβ+compound)}/{F(Aβ)−[…]}×100
The IC50s were calculated by a curve fitting program using the following equation. The data were obtained from two different experiments in triplicate.
x=Concentration of tested compound (M),
By IC50 is commonly meant the concentration that inhibits the measured activity by half. Compound `O=C(O)c1cc(C(F)(F)F)ccc1Nc1ccc(CCc2ccc(Cl)c(Cl)c2)cc1` [Example 143, 2-{4-[2-(3,4-Dichlorophenyl)-ethyl]-phenylamino}-5-trifuoromethyl-benzoic acid] showed an IC50 of over 100 µM.

As for `CCCNc1ccc(CCCc2ccc(Nc3ccccc3C(=O)O)cc2)cc1` [Example 51, 2-{4-[3-(4-Propylaminophenyl)propyl]phenylamino}benzoic acid], it took 39.1 µM to reach half-maximal inhibition (IC50).

In turn, `CN(c1ccc(CCc2ccc(Cl)c(Cl)c2)cc1)c1ccccc1C(=O)O` [Example 148, 2-({4-[2-(3,4-Dichloro-phenyl)-ethyl]-phenyl}-methyl-amino)-benzoic acid] had an IC50 of over 100 µM.

For `O=C(O)c1ccccc1Nc1ccc(CCCc2ccc(N3CCCCC3)cc2)cc1` [Example 47, 2-{4-[3-(4-Piperidin-1-ylphenyl)propyl]phenylamino}benzoic acid], the IC50 stood at 38.2 µM.

In turn, `O=C(O)c1ccccc1Nc1cccc(CCc2ccc(Cl)cc2)c1` [Example 154, 2-{3-[2-(4-Chlorophenyl)ethyl]phenylamino}-benzoic acid] registered a half-maximal inhibitory concentration (IC50) of 70.8 µM.

Turning to `CCCN(CCC)c1ccc(CCCc2cccc(Nc3ccccc3C(=O)O)c2)cc1` [Example 157, 2-{3-[3-(4-Di-n-propylaminophenyl)propyl]phenylamino}-benzoic acid], the IC50 amounted to 25.9 µM.

For `CCN(CC)c1ccc(CCCc2cccc(Nc3ccccc3C(=O)O)c2)cc1` [Example 156, 2-{3-[3-(4-Diethylaminophenyl)propyl]phenylamino}-benzoic acid], half-maximal inhibition (IC50) was put at 27.8 µM.

In turn, `CCCNc1cccc(CCCc2ccc(Nc3ccccc3C(=O)O)cc2)c1` [Example 52, 2-{4-[3-(3-Propylaminophenyl)propyl]phenylamino}benzoic acid] gave an IC50 of 36.5 µM.

In turn, `O=C(O)c1ccccc1Nc1cccc(CCCc2ccc(Cl)c(Cl)c2)c1` [Example 155, 2-{3-[3-(3,4-Dichlorophenyl)propyl]phenylamino}-benzoic acid] had an IC50 of 44.6 µM.

Compound `O=C(O)c1cc([N+](=O)[O-])c(-n2ccnc2)cc1Nc1ccc(CCCc2ccc(Cl)c(Cl)c2)cc1` [Example 8] displayed an IC50 of 7.17 µM.

For a further test, the target named is T2, Aβ(1-40) (Homo sapiens, UniProt P05067).
T2 construct: […]; purchased Bachem, Torrance, Calif
T2 sequence (P05067 672-711 limits assumed): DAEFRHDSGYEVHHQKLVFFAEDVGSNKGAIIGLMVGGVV
Description: BASST (Beta-Amyloid Self-Seeding, Thioflavin T), inhibitors of self-seeded amyloid fibril growth. The test is classed as biochemical. The settings on record: 30 μM soluble Aβ(1-40), 37° C., 3 to 5 hours, thioflavin T fluorescence; replicate values; letter = synthetic lot; read-out: BASST (IC50 = μM). On the procedure: (§1) An assay for inhibitors of self-seeded amyloid fibril growth
Assay Buffer—50 mM sodium phosphate, pH 7.5, 100 mM NaCl, 0.02% NaN3, 1 M urea (filter and store at 4° C.)
(§2) Typically, the solution should be stored until no lag phase is seen in the assay.
The following are the amounts of the components of the reaction mixture that result in each of the 50 assay wells:
• 1) Prepare the reaction mix above by mixing the components and storing on ice. • 2) Pipet 14.5 μL of reaction mixture into each of 50 wells of a polystyrene U-bottom 96-well microtiter plate (Corning 25881-96) on ice. • 3) Add 1.7 μL of diluted compound to be tested to each well in a column of eight, including solvent control. Serial 3-fold dilutions from 1 mM (100 μM final) in assay buffer−urea=7 dilutions+zero. Each 96-well plate can therefore accommodate 11 samples+1 Congo Red control (0.039-5 μM final in 2-fold steps). • 4) Seal the plate with aluminum film and incubate for 10 minutes on ice. • 5) Raise the temperature to 37° C. and incubate for 3 to 5 hours (depends on the lot of the peptide). • 6) Remove the aluminum film and add 250 μL/well of 5 μM thioflavin T (ThT) [T-3516, Sigma-Aldrich] in 50 mM glycine-NaOH, pH 8.5. Read fluorescence on a plate reader (ex=440 nm/20 nm; em=485 nm/20 nm) within 5 minutes. BAPA (Beta-Amyloid Peptide Aggregation)
For `CCCNc1ccc(CCCc2ccc(Nc3ccccc3C(=O)O)cc2)cc1` [Example 51, 2-{4-[3-(4-Propylaminophenyl)propyl]phenylamino}benzoic acid], the IC50 amounted to 0.8 µM.

As for `O=C(O)c1ccccc1Nc1ccc(CCCc2ccc(N3CCCCC3)cc2)cc1` [Example 47, 2-{4-[3-(4-Piperidin-1-ylphenyl)propyl]phenylamino}benzoic acid], the IC50 was determined as 2 µM.

`CCCNc1cccc(CCCc2ccc(Nc3ccccc3C(=O)O)cc2)c1` [Example 52, 2-{4-[3-(3-Propylaminophenyl)propyl]phenylamino}benzoic acid]: the IC50 came out at 0.5 µM.

In the case of `O=C(O)c1ccccc1Nc1cccc(CCCc2ccc(Cl)c(Cl)c2)c1` [Example 155, 2-{3-[3-(3,4-Dichlorophenyl)propyl]phenylamino}-benzoic acid], the IC50 is 3 µM.

Still in this test, the particulars now being: read-out: BASST (IC50 = μM).
As to `O=C(O)c1cc(C(F)(F)F)ccc1Nc1ccc(CCc2ccc(Cl)c(Cl)c2)cc1` [Example 143, 2-{4-[2-(3,4-Dichlorophenyl)-ethyl]-phenylamino}-5-trifuoromethyl-benzoic acid], the IC50 is 40 µM and 30 µM.

Another test deals with T2, Aβ(1-40). Description: BASSR (Beta-Amyloid Self-Seeding Radioassay), inhibitors of self-seeded amyloid fibril growth. The test is classed as biochemical.
Conditions: not given
The procedure: BASSR (Beta-Amyloid Self-Seeding Radioassay)
as §1
Assay Buffer—50 mM sodium phosphate, pH 7.5, 100 mM NaCl, 0.02% NaN3, 1 M urea (filter and store at 4° C.).
as §2
^125I-labeled Aβ(1-40)—150K-350K cpm/μL in 100% acetonitrile—0.1% trifluoroacetic acid (TFA)—1% β-mercaptoethanol (aliquots stored at −20° C.). ^125I-labeled Aβ(1-40) can be made in accordance with the procedure set forth by H. LeVine, III in Neurobiol. Aging, 16, 755, (1995), which is hereby incorporated by reference, or this reagent may be purchased from Amersham, Arlington Heights, Ill.
The following are the amounts of the components of the reaction mixture sufficient for 50 assay wells:
• 1) Prepare reaction mixture above by mixing components and storing on ice. • 2) Pipet 14.5 μL of reaction mixture into each of 50 wells on a polypropylene U-bottom 96-well microtiter plate on ice. (Costar 3794). • 3) Add 1.7 μL of diluted compound to be tested to each well in a column of eight, including solvent control. Serial 3-fold dilutions from 1 mM (100 μM final) in assay buffer−urea=7 dilutions+zero. Each 96-well plate can therefore accommodate 11 samples+1 Congo Red control (0.039-5 μM final in 2-fold steps). • 4) Seal the plate with aluminum film (Beckman 538619) and incubate for 10 minutes on ice. • 5) Raise the temperature to 37° C. and incubate for 3 to 5 hours (depending on the lot of the peptide). • 6) Remove the aluminum film and add 200 μL/well of ice cold assay buffer with urea, collecting the radiolabeled fibrils by vacuum filtration through 0.2 μm pore size GVWP filters in 96-well plates (Millipore MAGV N22, Bedford, Mass.). Determine the radioactivity of the filters using standard methods well-known to those skilled in the art. BASST (Beta-Amyloid Self-Seeding, Thioflavin T)
As to `O=C(O)c1cc(C(F)(F)F)ccc1Nc1ccc(CCc2ccc(Cl)c(Cl)c2)cc1` [Example 143, 2-{4-[2-(3,4-Dichlorophenyl)-ethyl]-phenylamino}-5-trifuoromethyl-benzoic acid], the IC50 was over 100 µM.

Staying with this test, now noted: 30 μM soluble Aβ(1-40) + 125I-labeled Aβ(1-40), 37° C., 3 to 5 hours; replicate values; letter = synthetic lot; ppt = precipitate; V-shaped = inhibition followed by precipitation.
For `CCCNc1ccc(CCCc2ccc(Nc3ccccc3C(=O)O)cc2)cc1` [Example 51, 2-{4-[3-(4-Propylaminophenyl)propyl]phenylamino}benzoic acid], the IC50 turned out to be 85 µM.

Consider `CN(c1ccc(CCc2ccc(Cl)c(Cl)c2)cc1)c1ccccc1C(=O)O` [Example 148, 2-({4-[2-(3,4-Dichloro-phenyl)-ethyl]-phenyl}-methyl-amino)-benzoic acid], for which the half-inhibitory concentration (IC50) is over 100 µM.

`O=C(O)c1ccccc1Nc1ccc(CCCc2ccc(N3CCCCC3)cc2)cc1` [Example 47, 2-{4-[3-(4-Piperidin-1-ylphenyl)propyl]phenylamino}benzoic acid]: the IC50 is over 100 µM.

In the case of `O=C(O)c1ccccc1Nc1cccc(CCc2ccc(Cl)cc2)c1` [Example 154, 2-{3-[2-(4-Chlorophenyl)ethyl]phenylamino}-benzoic acid], the IC50 is over 100 µM.

Turning to `CCCNc1cccc(CCCc2ccc(Nc3ccccc3C(=O)O)cc2)c1` [Example 52, 2-{4-[3-(3-Propylaminophenyl)propyl]phenylamino}benzoic acid], the IC50 was determined as 75 µM.

As to `O=C(O)c1ccccc1Nc1cccc(CCCc2ccc(Cl)c(Cl)c2)c1` [Example 155, 2-{3-[3-(3,4-Dichlorophenyl)propyl]phenylamino}-benzoic acid], the IC50 is over 100 µM.

As to `O=C(O)c1cc([N+](=O)[O-])c(-n2ccnc2)cc1Nc1ccc(CCCc2ccc(Cl)c(Cl)c2)cc1` [Example 8], the IC50 was 15 µM (3×) and 18 µM.
